Source: the SangsterLogP compilation

Assay: method code SF-HPLC, from DOI: 10.1002/jps.2600810814, PMID: 1403725

Row | Compound | logP
1 | CCCCN(C)N=O | 1.12
2 | CCCN(CCC)N=O | 1.61
3 | CCCCN(CCCC)N=O | 2.73
4 | CN(N=O)C(C)(C)C | 0.86
5 | CCN(C)N=O | 0.08
6 | CCCCCN(CCCCC)N=O | 3.91
7 | CCCN(C)N=O | 0.61
8 | CCN(CC)N=O | 0.61
9 | CC(C)CN(CC(C)C)N=O | 2.39
10 | CCCCN(CCC)N=O | 2.13
11 | CN(C)N=O | -0.38
12 | CCCCN(CC)N=O | 1.67
13 | CCN(N=O)C(C)C | 1
14 | CC(C)N(N=O)C(C)C | 1.48
